This is an account of results in US20080188445A1, “TETRACYCLINE COMPOSITIONS FOR TOPICAL ADMINISTRATION” (WARNER CHILCOTT COMPANY INC., priority 2007, published 2008).

Counter-ions that a name gives are not always drawn.

The data set can be described thus: Permeation through a silicone membrane, pH effect (side-by-side permeation apparatus). The data set is classed as in vitro ADME. The following applies: 32° C. The text has this:
A further study investigated the permeation of minocycline from a liquid formulation comprising 0.47% (w/w) minocycline HCl dissolved in water through a silicone membrane as function of the pH. The diffusion of tetracycline from commercially available Topicycline® (0.2% w/w tetracycline HCl) across a silicone membrane was also compared under equivalent conditions. The permeation apparatus used (FIG. 1) was as follows. The apparatus consisted of two water-jacketed compartments 1 and 2, separated by a standard silicone membrane 3 (SMEM001 002, Esco Rubber, Barloworld Scientific Ltd, UK), which were clamped together. Each water-jacketed compartment 1 and 2 had respective water inlets 4 and water outlets 5 on the respective outer compartments 6, said outer compartments containing water. Inner compartment 7 for containing sample and inner compartment 8 for containing dissolution medium are also shown. The liquid formulation (or the Topicycline®) was immediately introduced into the inner compartment 7 via port 10. A pre-heated 0.9% saline solution (32° C.) was introduced via the sampling port 9 in the inner compartment 8.

`CN(C)c1ccc(O)c2c1C[C@H]1C[C@H]3[C@H](N(C)C)C(O)=C(C(N)=O)C(=O)[C@@]3(O)C(O)=C1C2=O` [Minocycline HCl]: the “Amount of Tetracycline or Minocycline (μg) detected after 6 hours” value is 0.17 µg (pH 5.0, receiver 0.9% saline); 0.55 µg (pH 6.2, receiver 0.9% saline); 0.31 µg (pH 7.0, receiver 0.9% saline).
